The subject of one assay is EZH2. In words: EZH2 mRNA and protein levels. Type of assay: cell-based, human. The note with it: Du145 cells; 1, 2, and 5 μM for 96 h. As for the experimental part: FIG. 6A: Putative binding site of miR-141 in EZH2 3′-UTR. […] FIG. 6C is a qPCR analysis of EZH2 mRNA levels in CD44^+ PCa cells. Bars, mean±SD. *P<0.05; **P<0.01. […] Bars, mean±SD. **P<0.01. […] Western blotting was performed in PC3 and Du145 cells transfected with NC (60 nM) or miR-141 (30 or 60 nM) oligos (72 h). Relative protein levels were measured by densitometry and normalized to GAPDH levels (indicated below). […] Du145 cells plated one day before were treated with 1, 2, and 5 μM of DZNep for 96 h and then cells were harvested for invasion assays. **P<0.01. Inset, WB showing reduced EZH2 proteins by DZNep. […] Du145 cells were transfected with 10 nM scramble siRNA (siCon) or EZH2-targeting siRNAs (siEZH2) or siEZH2 plus anti-miR-141 (30 nM). 48 h later, cells were harvested for invasion assays. Bars, mean±SD. **P<0.01. […] Du145 cells were co-transfected with 30 nM NC or miR-141 oligos together with empty vector or pCMV-EZH2 construct. After 48 h, cells were harvested for invasion assay. Bars, mean±SD. **P<0.01.
Total RNA was extracted using microRNA isolation kit (Life Technologies) according to the manufacturer's instructions. microRNA qPCRs were performed using TaqMan microRNA assays (Life Technologies). qPCR data for microRNAs were normalized to RNU48 whereas qPCR data for mRNAs were normalized to GAPDH.
For Boyden Chamber invasion assays, Biocoat Matrigel Invasion Chamber (BD, Franklin Lakes, N.J.) was employed following the manufacturer's instructions. Briefly, 100,000-200,000 of prostate cancer cells after transfection with […]/miR-141 oligos or infection with miR-141 over-expressing lentivirus were seeded into each well. Medium with 20% fetal bovine serum was used in the lower chamber as chemo-attractant. After 20 h, cells were fixed and stained using HEMA stain. Representative images were taken for each membrane and cells were counted. Migration assays were simultaneously performed in control wells using identical protocol with Transwell (Costar; 8 μl PET) without Matrigel. […]

The next assay concerns Du145 cells. Nature of the assay: Boyden chamber Matrigel invasion assay. Type of assay: cell-based, human. As to conditions: 1, 2, and 5 μM for 96 h. As for the experimental part: FIGS. 3A-3J show partial suppression of epithelial to mesenchymal transition by miR-141 and CD44 as a direct target of miR-141. FIGS. 3A-3B show qPCR analysis of epithelial to mesenchymal transition markers in bulk (FIG. 3A) or CD44^+ (FIG. 3B) Du145 cells transfected with the miR-141 oligos (30 nM; 48 h). Results were presented as the relative expression levels over the cells transfected with the NC oligos. […] GAPDH was used as control and the relative protein levels after normalizing to GAPDH and NC controls were indicated below each lane. […] Shown below is the actual sequence in the region with the mutated miR-141 binding sequence indicated in grey (below). […] Shown are representative images. […]
Du145 cells transfected with NC or miR-141 oligos at the two doses and time intervals indicated were used in Western blotting. Indicated below are relative expression levels (normalized to respective GAPDH and compared to NC) of each protein determined by densitometric scanning of the individual bands. […]
FIG. 6A: Putative binding site of miR-141 in EZH2 3′-UTR. […] Relative protein levels were measured by densitometry and normalized to GAPDH levels (indicated below). […]
For Boyden Chamber invasion assays, Biocoat Matrigel Invasion Chamber (BD, Franklin Lakes, N.J.) was employed following the manufacturer's instructions. […] Representative images were taken for each membrane and cells were counted. […]

For `Cl.Nc1nccc2c1ncn2[C@@H]1C=C(CO)[C@@H](O)[C@H]1O` [DZNep, 3-Deazaneplanocin A hydrochloride, reference compound], in the assay on EZH2, the EZH2 protein result is reported as “reduced”. Besides, the Du145 cell invasion entry in the assay with Du145 cells is on record as “blocked”.

(Values after patent publication US10202604B2, “Methods of using microRNA-141” (Stemirna Therapeutics Co., Ltd., priority 2016, dated 2019).)
